According to US9938269B2, “Inhibitor compounds of phosphodiesterase type 10A” (ABBVIE INC., priority 2011, dated 2018):
pIC50: −log10 of the molar value. Structures can show the parent of a compound that is named as a salt.

Columns and labels:
PDE10A (human) = biological target: T1, PDE10A (human) (Homo sapiens, UniProt Q9Y233); test: Measurement of PDE activity (HTRF cAMP kit), human PDE10A; assay type: biochemical; conditions: PDE enzymatic reaction, substrate 20 nM for PDE10, 60 minutes at 29 C
T1 construct: purchased BPS Bioscience
In short: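 Recombinant human PDE10A (10–250 pM range across PDEs) with 20 nM cAMP substrate in 20 mM Tris-HCl pH 7.5, 10 mM MgCl2, 0.1% BSA, compound pre-mixed with enzyme. Ran 60 min at 29 °C. Remaining cAMP read by HTRF, converted to % of uninhibited activity, and IC50 fitted.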

[1] = Determination of the microsomal half-life, rat liver microsomes; conditions: rat, liver microsomes, pH 7.4
[2] = Determination of the microsomal half-life, human liver microsomes; conditions: human, liver microsomes, pH 7.4
Protocol: The test substances were incubated in a concentration of 0.5 μM as follows:
0.5 μM test substance are preincubated together with liver microsomes from different species (from rat, human or other species) (0.25 mg of microsomal protein/10 in 0.05 M potassium phosphate buffer of pH 7.4 in microtiter plates at 37° C. for 5 min. The reaction is started by adding NADPH (1 mg/mL). After 0, 5, 10, 15, 20 and 30 min., 50 μl aliquots are removed, and the reaction is immediately stopped and cooled with the same volume of acetonitrile. The samples are frozen until analyzed. The remaining concentration of undegraded test substance is determined by MSMS. The half-life (T½) is determined from the gradient of the signal of test substance/unit time plot, it being possible to calculate the half-life of the test substance, assuming first order kinetics, from the decrease in the concentration of the compound with time. The microsomal clearance (mCl) is calculated from mCl=ln 2/T½/(content of microsomal protein in mg/ml)×1000 [ml/min/mg]

T1 sequence (Q9Y233 whole entry): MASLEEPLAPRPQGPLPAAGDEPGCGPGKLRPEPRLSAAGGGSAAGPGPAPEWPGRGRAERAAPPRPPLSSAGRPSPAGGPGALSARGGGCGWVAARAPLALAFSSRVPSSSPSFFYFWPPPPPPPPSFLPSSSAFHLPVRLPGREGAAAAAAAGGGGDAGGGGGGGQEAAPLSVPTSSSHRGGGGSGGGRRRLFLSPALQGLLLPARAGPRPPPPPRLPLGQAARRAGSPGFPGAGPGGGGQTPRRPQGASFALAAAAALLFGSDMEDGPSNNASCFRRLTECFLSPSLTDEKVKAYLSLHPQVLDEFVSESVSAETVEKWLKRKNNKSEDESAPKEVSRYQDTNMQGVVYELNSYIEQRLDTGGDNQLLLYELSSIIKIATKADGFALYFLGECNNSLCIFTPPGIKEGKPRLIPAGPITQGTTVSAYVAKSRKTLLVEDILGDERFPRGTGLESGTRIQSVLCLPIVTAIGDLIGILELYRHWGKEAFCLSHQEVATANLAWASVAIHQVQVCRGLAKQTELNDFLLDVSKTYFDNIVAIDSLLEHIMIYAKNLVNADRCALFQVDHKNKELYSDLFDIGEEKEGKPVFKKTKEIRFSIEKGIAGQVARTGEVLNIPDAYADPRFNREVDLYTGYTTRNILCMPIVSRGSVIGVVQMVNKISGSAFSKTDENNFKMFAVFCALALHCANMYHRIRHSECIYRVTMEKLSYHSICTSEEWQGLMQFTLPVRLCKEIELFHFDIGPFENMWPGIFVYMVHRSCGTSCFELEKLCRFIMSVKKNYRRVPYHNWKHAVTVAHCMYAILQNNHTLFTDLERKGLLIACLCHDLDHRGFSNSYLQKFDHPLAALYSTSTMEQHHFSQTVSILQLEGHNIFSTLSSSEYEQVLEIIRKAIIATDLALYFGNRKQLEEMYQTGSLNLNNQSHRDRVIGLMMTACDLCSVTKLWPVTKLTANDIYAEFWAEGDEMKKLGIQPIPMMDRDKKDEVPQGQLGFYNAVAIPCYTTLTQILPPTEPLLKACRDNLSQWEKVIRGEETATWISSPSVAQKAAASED

| SMILES | pIC50 (PDE10A (human)) | microsomal CLint at 0.5 μM [1] | microsomal CLint at 0.5 μM [2] |
| --- | --- | --- | --- |
| O=C1c2c(cccc2-c2ccc(F)cc2)CN1CCc1cn2ccccc2n1 [Example 236, 7-(4-Fluoro-phenyl)-2-(2-imidazol[1,2-a]pyridin-2-yl-ethyl)-2,3-dihydro-isoindol-1-one] | 6.30 to 6.70 | 100 to 220 µL/min/mg | 100 to 220 µL/min/mg |
| O=C1c2c(cccc2-c2cncnc2)CN1CCc1cn2ccccc2n1 [Example 238, 2-(2-Imidazo[1,2-a]pyridin-2-yl-ethyl)-7-pyrimidin-5-yl-2,3-dihydro-isoindol-1-one] | > 7.00 | < 100 µL/min/mg | 100 to 220 µL/min/mg |
| Cn1nccc1-c1cccc2c1C(=O)N(CCc1cn3ccccc3n1)C2 [Example 239, 2-(2-Imidazo[1,2-a]pyridin-2-yl-ethyl)-7-(2-methyl-2H-pyrazol-3-yl)-2,3-dihydro-isoindol-1-one] | 6.70 to 7.00 | < 100 µL/min/mg | < 100 µL/min/mg |
| Cc1ncccc1-c1cccc2c1C(=O)N(CCc1cn3ccccc3n1)C2 [Example 240, 2-(2-Imidazo[1,2-a]pyridin-2-yl-ethyl)-7-(2-methyl-pyridin-3-yl)-2,3-dihydro-isoindol-1-one] | > 7.00 | 100 to 220 µL/min/mg | < 100 µL/min/mg |
| O=C1Cc2ccc(-c3cccc4c3C(=O)N(CCc3cn5ccccc5n3)C4)cc2N1 [Example 241, 6-[2-(2-Imidazo[1,2-a]pyridin-2-yl-ethyl)-3-oxo-2,3-dihydro-1H-isoindol-4-yl]-1,3-dihydro-indol-2-one] | > 7.00 | < 100 µL/min/mg | < 100 µL/min/mg |
| O=C1c2c(cccc2-c2cn[nH]c2)CN1CCc1cn2ccccc2n1 [Example 242, 2-(2-Imidazo[1,2-a]pyridin-2-yl-ethyl)-7-(1H-pyrazol-4-yl)-2,3-dihydro-isoindol-1-one] | 6.70 to 7.00 | 100 to 220 µL/min/mg | < 100 µL/min/mg |
| O=C1c2c(cccc2-c2ccc3nc[nH]c3c2)CN1CCc1cn2ccccc2n1 [Example 244, 7-(3H-Benzoimidazol-5-yl)-2-(2-imidazol[1,2-a]pyridin-2-yl-ethyl)-2,3-dihydro-isoindol-1-one] | 6.70 to 7.00 | < 100 µL/min/mg | < 100 µL/min/mg |
| O=C1c2c(cccc2-c2ccc3[nH]c(=O)[nH]c3c2)CN1CCc1cn2ccccc2n1 [Example 245, 5-[2-(2-Imidazo[1,2-a]pyridin-2-yl-ethyl)-3-oxo-2,3-dihydro-1H-isoindol-4-yl]-1,3-dihydro-benzoimidazol-2-one] | > 7.00 | < 100 µL/min/mg | < 100 µL/min/mg |
| O=C1c2cccc(OCc3cccnc3)c2C(=O)N1CCc1ccc2ccccc2n1 [Example 246, 4-(Pyridin-3-ylmethoxy)-2-(2-quinolin-2-yl-ethyl)-isoindole-1,3-dione] | > 7.00 | > 220 µL/min/mg | 100 to 220 µL/min/mg |
| COc1ccc(N2CCOCC2)c2c1CN(CCc1ccc3ccccc3n1)C2=O [Example 248, 4-Methoxy-7-morpholin-4-yl-2-(2-quinolin-2-yl-ethyl)-2,3-dihydro-isoindol-1-one] | > 7.00 | < 100 µL/min/mg | < 100 µL/min/mg |
| O=C1c2cccc(N3CCS(=O)(=O)CC3)c2C(=O)N1CCc1ccc2ccccc2n1 [Example 250, 4-(1,1-Dioxothiomorpholin-4-yl)-2-(2-quinolin-2-yl-ethyl)-isoindole-1,3-dione] | > 7.00 | > 220 µL/min/mg | 100 to 220 µL/min/mg |
| O=C1c2c(cccc2-c2cccnc2)CN1CCc1nc2ncccc2[nH]1 [Example 253, 2-[2-(1H-Imidazo[4,5-b]pyridin-2-yl)-ethyl]-7-pyridin-3-yl-2,3-dihydro-isoindol-1-one] | 6.30 to 6.70 | < 100 µL/min/mg | < 100 µL/min/mg |
| Cn1nccc1-c1ccnc2c1C(=O)N(CCc1cn3ccccc3n1)C2 [Example 255, 6-(2-Imidazo[1,2-a]pyridin-2-yl-ethyl)-4-(2-methyl-2H-pyrazol-3-yl)-6,7-dihydro-pyrrolo[3,4-b]pyridin-5-one] | 6.70 to 7.00 | < 100 µL/min/mg | < 100 µL/min/mg |
| O=C1c2c(-c3cncnc3)ccnc2CN1CCc1cn2ccccc2n1 [Example 256, 6-(2-Imidazo[1,2-a]pyridin-2-yl-ethyl)-4-pyrimidin-5-yl-6,7-dihydro-pyrrolo[3,4-b]pyridin-5-one] | > 7.00 | < 100 µL/min/mg | < 100 µL/min/mg |
| O=C1c2c(N3CCC4(COC4)C3)ccnc2CN1CCc1ccc2ccccc2n1 [Example 257, 4-(2-Oxa-6-aza-spiro[3.4]oct-6-yl)-6-(2-quinolin-2-yl-ethyl)-6,7-dihydro-pyrrolo[3,4-b]pyridin-5-one] | > 7.00 | 100 to 220 µL/min/mg | 100 to 220 µL/min/mg |
| COc1ccc(N2CCN(C)CC2)c2c1CN(CCc1ccc3ccccc3n1)C2=O [Example 261, 4-Methoxy-7-(4-methyl-piperazin-1-yl)-2-(2-quinolin-2-yl-ethyl)-2,3-dihydro-isoindol-1-one di-trifluoroacetate] | > 7.00 | > 220 µL/min/mg | < 100 µL/min/mg |
| Cn1c(CCN2Cc3cccc(N4CCOCC4)c3C2=O)nc2cc(F)ccc21 [Example 262, 2-[2-(5-Fluoro-1-methyl-1H-benzoimidazol-2-yl)-ethyl]-7-morpholin-4-yl-2,3-dihydro-isoindol-1-one] | > 7.00 | < 100 µL/min/mg | 100 to 220 µL/min/mg |
| O=C1c2c(cccc2N2CCOCC2)CN1CCc1nc2ccccc2s1 [Example 263, 2-(2-Benzothiazol-2-yl-ethyl)-7-morpholin-4-yl-2,3-dihydro-isoindol-1-one trifluoroacetate] | > 7.00 | < 100 µL/min/mg | 100 to 220 µL/min/mg |
| COc1ccc(N2CCOCC2)c2c1CN(CCc1cn3ccccc3n1)C2=O [Example 264, 2-(2-Imidazo[1,2-a]pyridin-2-yl-ethyl)-4-methoxy-7-morpholin-4-yl-2,3-dihydro-isoindol-1-one trifluoroacetate] | > 7.00 | < 100 µL/min/mg | < 100 µL/min/mg |
| O=C1c2c(C3=CCOCC3)ccnc2CN1CCc1ccc2ccccc2n1 [Example 265, 4-(3,6-Dihydro-2H-pyran-4-yl)-6-(2-quinolin-2-yl-ethyl)-6,7-dihydro-pyrrolo[3,4-b]pyridin-5-one] | > 7.00 | 100 to 220 µL/min/mg | 100 to 220 µL/min/mg |
| O=C1c2c(N3CCOCC3)ccnc2CN1CCc1cn2ccccc2n1 [Example 270, 6-(2-Imidazo[1,2-a]pyridin-2-yl-ethyl)-4-morpholin-4-yl-6,7-dihydro-pyrrolo[3,4-b]pyridin-5-one di-trifluoroacetate] | > 7.00 | < 100 µL/min/mg | < 100 µL/min/mg |
| O=C1c2c(cccc2NC2COC2)CN1CCc1ccc2ccccc2n1 [Example 274, 7-(Oxetan-3-ylamino)-2-(2-quinolin-2-yl-ethyl)-2,3-dihydro-isoindol-1-one] | > 7.00 | 100 to 220 µL/min/mg | 100 to 220 µL/min/mg |
| O=C1c2c(NC3COC3)ccnc2CN1CCc1ccc2ccccc2n1 [Example 275, 4-(Oxetan-3-ylamino)-6-(2-quinolin-2-yl-ethyl)-6,7-dihydro-pyrrolo[3,4-b]pyridin-5_] | > 7.00 | < 100 µL/min/mg | < 100 µL/min/mg |
| CCn1c(CCN2Cc3cccc(N4CCOCC4)c3C2=O)nc2ccccc21 [Example 278, 2-[2-(1-Ethyl-1H-benzoimidazol-2-yl)-ethyl]-7-morpholin-4-yl-2,3-dihydro-isoindol-1-one] | > 7.00 | 100 to 220 µL/min/mg | 100 to 220 µL/min/mg |
| O=C1c2c(-c3ccncc3)ccc(F)c2CN1CCc1cn2ccccc2n1 [Example 280, 4-Fluoro-2-(2-imidazo[1,2-a]pyridin-2-yl-ethyl)-7-pyridin-4-yl-2,3-dihydro-isoindol-1-one] | > 7.00 | 100 to 220 µL/min/mg | 100 to 220 µL/min/mg |
| CN(C)CCCn1c(CCN2Cc3cccc(-c4ccncc4)c3C2=O)nc2ccccc21 [Example 294, 2-{2-[1-(3-Dimethylamino-propyl)-1H-benzoimidazol-2-yl]-ethyl}-7-pyridin-4-yl-2,3-dihydro-isoindol-1-one trifluoroacetate] | 6.30 to 6.70 | < 100 µL/min/mg | 100 to 220 µL/min/mg |
| O=C1c2c(N3CCOCC3)ccc(F)c2CN1CCc1cn2ccccc2n1 [Example 295, 4-Fluoro-2-(2-imidazo[1,2-a]pyridin-2-yl-ethyl)-7-morpholin-4-yl-2,3-dihydro-isoindol-1-one] | > 7.00 | < 100 µL/min/mg | < 100 µL/min/mg |
| O=C1c2c(-c3cncnc3)cc[n+]([O-])c2CN1CCc1ccc2ccccc2n1 [Example 296, 1-Oxy-4-pyrimidin-5-yl-6-(2-quinolin-2-yl-ethyl)-6,7-dihydro-pyrrolo[3,4-b]pyridin-5-one] | > 7.00 | < 100 µL/min/mg | < 100 µL/min/mg |
| O=C1c2c(C3CCOCC3)ccnc2CN1CCc1ccc2ccccc2n1 [Example 297, 6-(2-Quinolin-2-yl-ethyl)-4-(tetrahydro-pyran-4-yl)-6,7-dihydro-pyrrolo[3,4-b]pyridin-5-one] | > 7.00 | 100 to 220 µL/min/mg | 100 to 220 µL/min/mg |
| Cn1c(CCN2Cc3cccc(-c4ccncc4)c3C2=O)nc2c(F)cccc21 [Example 300, 2-[2-(4-Fluoro-1-methyl-1H-benzoimidazol-2-yl)-ethyl]-7-pyridin-4-yl-2,3-dihydro-isoindol-1-one trifluoroacetate] | > 7.00 | 100 to 220 µL/min/mg | > 220 µL/min/mg |
